Assay [1] concerns Staphylococcus aureus (ATCC 6538P). The assay is described as follows: Antibacterial assay (MIC), Staphylococcus aureus ATCC 6538P, Luria Broth, Example 1. To be noted: Staphylococcus aureus, ATCC6538P, read-out: Sa (minimum inhibitory concentration). The assay is classed as cell-based. As to the method: (§1) Antibacterial Assay Method for Staphylococcus aureus (ATCC 6538P) and Enterococcus faecium
Staphylococcus aureus (ATCC 6538P)
(§2) Compounds are accurately weighed out (between approx. 1-2 mg) and dissolved in either 10% methanol/water (v/v) or 100% DMSO to a final stock concentration of 5 mg/ml.
(§3) Compounds are then diluted 1/10 in H2O to a test conc of 500 ug/ml ready for immediate use, or storage at −20° C.
(§4) Grow up an o/n starter culture of Staphylococcus aureus and each VRE strain by diluting previous culture (stored at 4° C.) 1/1000 into −50 mls Luria Broth (LB) for S. aureus or Enterococossel Broth (EB) for the VRE strains.
(§5) Incubate o/n at 37° C.+shaking. • A glycerol stock (0.6 mls bacterial culture, 0.3 mls glycerol) of each strain is kept at −80° C. if needed. Assay Set Up:
(§6) In a 96well round bottom plate add 50 ul LB/well for the S. aureus plate and add 50 ul EB/well for the VRE plates.
(§7) Add 50 ul of compound dilution (500 ug/ml test conc) to each of three top row wells (ie: tested in triplicate) and dilute 1 in 2 from the top row to the bottom row.
(§8) After the compound dilution, add to each well 50 ul of a 1/1000 dilution of the appropriate overnight bacterial culture, either S. aureus or the different VRE strains.
(§9) Plates are incubated at 37° C. on a slowly rotating plate incubator. • test concentrations are (in ug/ml) 125, 62.5, 31.25, 15.6, 7.8, 3.9, 1.9, 0.98 • final DMSO concentration in the first row of wells of the assay is 2.5% • Vancomycin is included in the assay (in triplicate) at a starting test concentration of 5 ug/ml for S. aureus and 125 ug/ml for the VRE strains Reading Results of Assay:
(§10) After incubation for 24 hrs the plates are removed and read. Inhibition of bacterial growth is indicated by lack of bacterial pellet or a clear well. In the VRE plates bacterial growth is indicated by black coloured media (EB) as well as a bacterial pellet.
(§11) Untreated control wells are included in the assay to check they all contain bacterial pellets. Uninoculated untreated control wells are included to check they all contain clear medium.
(§12) The plates are analysed for MIC and the results tabulated.

Assay [2] deals with #243 E. faecium van B ST17. Description: Antibacterial assay (MIC), VRE strain #243, Enterococossel Broth, Example 1. Type of assay: cell-based, Enterococcus faecium. The conditions noted are these: Enterococcus faecium, read-out: 243 (minimum inhibitory concentration). As to the method: as §1
(§13) VRE strains: #243 E. faecium van B ST17 #449 E. faecium van B ST17
as §2, §3, §4, §5, §6, §7, §8, §9, §10, §11, §12

The subject of assay [3] is #449 E. faecium van B ST17. Description: Antibacterial assay (MIC), VRE strain #449, Enterococossel Broth, Example 1. The conditions noted are these: Enterococcus faecium, read-out: 449 (minimum inhibitory concentration). The assay is classed as cell-based, Enterococcus faecium. Here is the method: as §1, §13, §2, §3, §4, §5, §6, §7, §8, §9, §10, §11, §12
Assay [4] deals with #820 E. faecium van A ST17. The assay is described as follows: Antibacterial assay (MIC), VRE strain #820, Enterococossel Broth, Example 1. The assay is classed as cell-based, Enterococcus faecium. To be noted: Enterococcus faecium, read-out: 820 (minimum inhibitory concentration). As to the method:
as §1
(§14) #820 E. faecium van A ST17 #987 E. faecium van B ST39
as §2, §3, §4, §5, §6, §7, §8, §9, §10, §11, §12

For assay [5], the system named is #987 E. faecium van B ST39. The assay is described as follows: Antibacterial assay (MIC), VRE strain #987, Enterococossel Broth, Example 1. The assay is classed as cell-based, Enterococcus faecium. To be noted: Enterococcus faecium; Example 1 compounds; VRE #987 E. faecium van B; 24 hrs, 37° C.; read-out: 987 (minimum inhibitory concentration). As to the method: as §1, §14, §2, §3, §4, §5, §6, §7, §8, §9, §10, §11, §12

The mark [6] stands for this setting: Example 1 compounds, S. aureus ATCC 6538P, 24 hrs, 37° C., range if at least two of three values fell within it.
The mark [7] stands for this setting: Example 1 compounds, VRE #243 E. faecium van B, 24 hrs, 37° C.
[8] abbreviates: Example 1 compounds, VRE #449 E. faecium van B, 24 hrs, 37° C.
Setting [9] is: Example 1 compounds, VRE #820 E. faecium van A, 24 hrs, 37° C.

≈ marks a conversion by molar mass, not a printed value. Where two headings read alike, the source gives them in different places.

As to `CC(C)CCOc1ccc2ccccc2c1-c1c(OCC(=O)N[C@H](CCCCN)C(=O)N[C@H](CCCNC(=N)N)C(=O)N[C@H](C(=O)OCc2ccccc2)C(C)C)ccc2ccccc12.Cl.Cl` (atropisomer, axis not shown) [Compound 2], the MIC in assay [1] (setting [6]) lay within 0.99 to 15.6 µg/mL; in assay [2] (setting [7]) it was 15.7 to 62.5 µg/mL; in assay [3] (setting [8]) it was 15.7 to 62.5 µg/mL; in assay [4] (setting [9]), 15.7 to 62.5 µg/mL; in assay [5], 15.7 to 62.5 µg/mL.

Regarding `CC(C)CCOc1ccc2ccccc2c1-c1c(OCC(=O)N[C@H](CCCCN)C(=O)N[C@H](CCCNC(=N)N)C(=O)N[C@@H](CC(C)C)C(=O)OCc2ccc(Cl)cc2)ccc2ccccc12.Cl.Cl` (atropisomer, axis not shown) [Compound 4], the MIC in assay [1] (setting [6]) lay in the range of 0.99 to 15.6 µg/mL; in assay [2] (setting [7]) it was 15.7 to 62.5 µg/mL; in assay [3] (setting [8]), 15.7 to 62.5 µg/mL; in assay [4] (setting [9]) it was 15.7 to 62.5 µg/mL; in assay [5], 15.7 to 62.5 µg/mL.

With `CC(C)CCOc1ccc2ccccc2c1-c1c(OCC(=O)N[C@H](CCCCN)C(=O)N[C@H](CCCNC(=N)N)C(=O)N[C@@H](CC(C)C)C(=O)OCc2ccc([N+](=O)[O-])cc2)ccc2ccccc12.Cl.Cl` (atropisomer, axis not shown) [Compound 5], the MIC in assay [1] (setting [6]) lay within 0.99 to 15.6 µg/mL; in assay [2] (setting [7]) it was 15.7 to 62.5 µg/mL; in assay [3] (setting [8]), 15.7 to 62.5 µg/mL; in assay [4] (setting [9]), 15.7 to 62.5 µg/mL; in assay [5], 15.7 to 62.5 µg/mL.

Consider `CC(C)CCOc1ccc2ccccc2c1-c1c(OCC(=O)N[C@H](CCCCN)C(=O)N[C@H](CCCNC(=N)N)C(=O)N[C@@H](CC(C)C)C(=O)OCc2cccc(Cl)c2)ccc2ccccc12.Cl.Cl` (atropisomer, axis not shown) [Compound 6], for which the MIC in assay [1] (setting [6]) is 0.99 to 15.6 µg/mL; in assay [2] (setting [7]) it was 15.7 to 62.5 µg/mL; in assay [3] (setting [8]), 15.7 to 62.5 µg/mL; in assay [4] (setting [9]), 15.7 to 62.5 µg/mL; in assay [5], 15.7 to 62.5 µg/mL.

In the case of `CC(C)CCOc1ccc2ccccc2c1-c1c(OCC(=O)N[C@H](CCCCN)C(=O)N[C@H](CCCNC(=N)N)C(=O)N[C@@H](CC(C)C)C(=O)OCc2ccccc2Cl)ccc2ccccc12.Cl.Cl` (atropisomer, axis not shown) [Compound 7], the MIC lay in the range of 0.99 to 15.6 µg/mL in assay [1] (setting [6]); 15.7 to 62.5 µg/mL in assay [2] (setting [7]); 15.7 to 62.5 µg/mL in assay [3] (setting [8]); 15.7 to 62.5 µg/mL in assay [4] (setting [9]); 15.7 to 62.5 µg/mL in assay [5].

Turning to `CC(C)CCOc1ccc2ccccc2c1-c1c(OCC(=O)N[C@H](CCCCN)C(=O)N[C@H](CCCNC(=N)N)C(=O)N[C@@H](CC(C)C)C(=O)OCc2c(Cl)cccc2Cl)ccc2ccccc12.Cl.Cl` (atropisomer, axis not shown) [Compound 8], the MIC was 15.7 to 62.5 µg/mL in assay [1] (setting [6]); above 62.6 µg/mL in assay [2] (setting [7]); above 62.6 µg/mL in assay [3] (setting [8]); above 62.6 µg/mL in assay [4] (setting [9]); above 62.6 µg/mL in assay [5].

For the compound `Cc1ccc(COC(=O)[C@H](CC(C)C)NC(=O)[C@@H](CCCNC(=N)N)NC(=O)[C@@H](CCCCN)NC(=O)COc2ccc3ccccc3c2-c2c(OCCC(C)C)ccc3ccccc23)cc1.Cl.Cl` (atropisomer, axis not shown) [Compound 9], the MIC in assay [1] (setting [6]) is 0.99 to 15.6 µg/mL; in assay [2] (setting [7]) it was above 62.6 µg/mL; in assay [3] (setting [8]), 15.7 to 62.5 µg/mL; in assay [4] (setting [9]), 15.7 to 62.5 µg/mL; in assay [5], 15.7 to 62.5 µg/mL.

For the compound `CC(C)CCOc1ccc2ccccc2c1-c1c(OCC(=O)N[C@H](CCCCN)C(=O)N[C@H](CCCNC(=N)N)C(=O)N[C@@H](CC(C)C)C(=O)OCc2ccccc2)ccc2ccccc12` (atropisomer, axis not shown) [Compound 10], the MIC in assay [1] (setting [6]) is 0.99 to 15.6 µg/mL (≈ 1.1 to 17.3 µM); in assay [2] (setting [7]), 15.7 to 62.5 µg/mL (≈ 17.4 to 69.3 µM); in assay [3] (setting [8]), 15.7 to 62.5 µg/mL (≈ 17.4 to 69.3 µM); in assay [4] (setting [9]), 15.7 to 62.5 µg/mL (≈ 17.4 to 69.3 µM); in assay [5], 15.7 to 62.5 µg/mL (≈ 17.4 to 69.3 µM).

With `COC(=O)[C@@H](CCCNC(=N)N)NC(=O)CCCOc1ccc2ccccc2c1-c1c(OCCCC(=O)N[C@H](CCCNC(=N)N)C(=O)OC)ccc2ccccc12` [Compound 33], the MIC in assay [1] (24 h) is 0.99 to 15.6 µg/mL (≈ 1.24 to 19.5 µM); in assay [3] (VRE, 24 h) it was above 62.6 µg/mL; in assay [4] (VRE, 24 h), above 62.6 µg/mL.

With `N=C(N)NCCC[C@@H](NC(=O)CCCOc1ccc2ccccc2c1-c1c(OCCCC(=O)N[C@H](CCCNC(=N)N)C(=O)OCc2ccccc2)ccc2ccccc12)C(=O)OCc1ccccc1` [Compound 38], the MIC fell in the range of 0.99 to 15.6 µg/mL (≈ 1.04 to 16.4 µM) in assay [1] (24 h) and 15.7 to 62.5 µg/mL (≈ 16.5 to 65.7 µM) in assay [2] (VRE, 24 h).

Source of the values: patent US8039430B2 (University of Wollongong, priority 2005, dated 2011).
